This passage reports TGI results from PubChem BioAssay (NCI).

The structures appear in SMILES notation.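 Where inhibition never reached the appropriate level, the endpoint shown equals the highest concentration tested. Otherwise, values were interpolated linearly from a five-concentration, 48-hour dose response in 96-well plates. The concentration for full growth arrest is given as TGI.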 Where only a bound is given, the exact number is not on record here.

Common to all, as to assay: NCI tumour cell line growth inhibition, 48 h
Assay [1] concerns 786-0 renal.
Assay [2] deals with K-562 leukemia.
Assay [3] concerns UO-31 renal.
The subject of assay [4] is NCI-H23 lung.
Assay [5] deals with HL-60(TB) leukemia.
Assay [6] concerns MDA-N.
Assay [7] has as its system A498 renal.
Assay [8] relates to EKVX NSCLC.
For assay [9], the system named is U251 CNS.
For assay [10], the system named is ACHN renal.
Assay [11] deals with HCC-2998 colon.
Assay [12] concerns SK-MEL-28 melanoma.
Assay [13] concerns IGROV1 ovarian.
The test system of assay [14] is CCRF-CEM leukemia.
Assay [15] deals with SK-OV-3 ovarian.
Assay [16] deals with M14 melanoma.
For assay [17], the system named is HOP-92 NSCLC.
For assay [18], the system named is MDA-MB-231 breast.
The subject of assay [19] is SF-295 CNS.
Assay [20] relates to HOP-62 NSCLC.

Regarding `Nc1nnc(-c2ccco2)c(-c2ccco2)n1`, the TGI in [1], in [2], in [3], in [4], in [5] and in assay [6] was above 100 µM in each case. The TGI in [7], in [8], in assay [9], in assay [10], in [11] and in assay [12] was above 100 µM in each case. The TGI in [13], in assay [14], in assay [15], in assay [16], in [17] and in [18] was above 100 µM in each case. The compound further registered a TGI in assay [19] above 100 µM.

For `COc1cc(/C=C/C2=NN(c3cccc(S(=O)(=O)O)c3)C3(C2)C(Cl)C(=O)N3c2nc3ccccc3s2)ccc1O` (stereo not given), the TGI came to 32.2 µM in assay [1]; 61.9 µM in assay [2]; 33.6 µM in [3]; 29.6 µM in assay [4]; 42.5 µM in assay [5]; 60.3 µM in assay [6]. Further, the TGI in assay [7] is above 100 µM; in assay [8], 42.3 µM; in assay [9], 40.7 µM; in assay [10] it was 30.9 µM; in assay [11], 38.2 µM; in assay [12] it was 76.6 µM. For the same compound, the TGI in assay [13] was 31.5 µM; in [14], 42.2 µM; in [16], above 100 µM; in assay [17] it was 29.7 µM; in assay [18] it was 47.1 µM.

Consider `Cc1c2cnccc2nc2[nH]c3ccncc3c12`, for which the TGI is 63.1 µM in assay [1]; above 100 µM in assay [2]; 28.8 µM in [3]; 18.4 µM in assay [20]; 6.9 µM in [4]; 61.9 µM in assay [5]. Also, the TGI was 43.2 µM in assay [6]; 47.5 µM in assay [7]; 96.9 µM in [8]; above 100 µM in assay [9]; 13.6 µM in assay [10]; above 100 µM in assay [12]. The TGI in assay [13] is 20.4 µM; in [14] it was 32.6 µM; in [15], above 100 µM; in assay [16], 20.6 µM; in [17], 25.3 µM; in assay [18], above 100 µM. The compound also registered a TGI in assay [19] of 52.5 µM.

In the case of `CCOC(=O)COc1ccc(/C=C/C(=O)c2ccc(OC)cc2)cc1`, the TGI is 54.3 µM in assay [1]; above 100 µM in assay [2]; 45.4 µM in assay [3]; 53.3 µM in [20]; 79.8 µM in assay [4]; above 100 µM in assay [5]. In addition, the TGI in [6] is 75.1 µM; in assay [7] it was above 100 µM; in [8] it was above 100 µM; in assay [9] it was 34.6 µM; in assay [10], above 100 µM; in assay [11] it was 48.7 µM. Moreover, the TGI in assay [12] is 58.4 µM; in [13], above 100 µM; in [14], above 100 µM; in assay [16], above 100 µM; in [17], 48.2 µM; in [18], 88.3 µM. The compound also gave a TGI in [19] above 100 µM.

On to `N#Cc1c2c([nH]c(=O)c1C#N)CCCC2`, for which the TGI in assay [1], in [2], in assay [3], in assay [4], in assay [5] and in assay [6] was above 100 µM in each case. Moreover, the TGI in [7], in assay [8], in [9], in assay [10], in assay [11] and in assay [12] was above 100 µM in each case. The TGI in assay [13], in assay [14], in assay [15], in assay [16], in assay [17] and in assay [18] was above 100 µM throughout. In assay [19], this compound gave a TGI above 100 µM.

Regarding `O=C1N[C@@H]([C@H](CCCCCO)OC(=O)c2ccccc2)CO1`, the TGI in assay [1], in [2], in [3], in assay [20], in [5] and in assay [6] was above 100 µM throughout. The TGI in assay [7], in [8], in [9], in [10], in assay [12] and in [13] was above 100 µM in each case. Moreover, the TGI in assay [14], in assay [15], in [17], in [18] and in assay [19] was above 100 µM each time.

On to `O=C1C(=O)N(C2CCCCC2)C(=S)N1C1CCCCC1`, for which the TGI in assay [1], in assay [2], in [3], in assay [20], in assay [4] and in [5] was above 100 µM each time. Besides, the TGI in assay [6], in [7], in assay [8], in assay [9], in [10] and in assay [11] was above 100 µM throughout. In addition, the TGI in assay [12], in assay [13], in [14], in assay [15], in assay [17] and in [18] was above 100 µM each time. Moreover, in assay [19], the TGI was above 100 µM.

On to `O=C1CC(CC(OCc2ccccc2)C(COCc2ccccc2)OCc2ccccc2)CC(=O)N1` (stereo not given), for which the TGI in [1] was above 100 µM; in assay [2], above 100 µM; in assay [3], 58.5 µM; in assay [20] it was above 100 µM; in [4], above 100 µM; in assay [5] it was above 100 µM. The TGI in [6] was 82.4 µM; in assay [7], above 100 µM; in [8], 92.8 µM; in assay [9] it was above 100 µM; in assay [10], above 100 µM; in assay [11], above 100 µM. For the same compound, the TGI in assay [12] is above 100 µM; in assay [13], above 100 µM; in [14] it was above 100 µM; in assay [16] it was above 100 µM; in [17], 86.1 µM; in assay [18], above 100 µM. The same compound had a TGI in [19] above 100 µM.

On to `Cn1c(COC(=O)NC2CCCCC2)c(COC(=O)NC2CCCCC2)c2ccc3cc(Cl)c(Cl)cc3c21`, for which the TGI in [1] amounted to 30.3 µM; in assay [2], 15.7 µM; in [3] it was 66.7 µM; in assay [4], 40.5 µM; in [5], 26.4 µM; in assay [6], 25.4 µM. Moreover, the TGI in [7] was 25.9 µM; in [8], above 100 µM; in [10], 32.3 µM; in assay [11], 26.6 µM; in assay [12], 50.2 µM; in assay [13] it was 39.1 µM. Also, the TGI in assay [14] was 11.3 µM; in assay [15] it was above 100 µM; in assay [16], 36.7 µM; in assay [17], 19.5 µM; in [18] it was 22.1 µM; in [19], above 100 µM.

With `Cc1cc(C)c(C)c(-n2[nH]c(=O)n(C)c2=O)c1C`, the TGI in assay [1], in assay [2], in [3], in assay [20], in assay [4] and in assay [5] was above 100 µM throughout. The TGI in assay [6], in [7], in [8], in assay [9], in [10] and in assay [12] was above 100 µM throughout. Besides, the TGI in assay [13], in assay [14], in assay [15], in assay [16], in [17] and in assay [18] was above 100 µM each time. In [19], this compound yielded a TGI above 100 µM.

Regarding `C1=NCCOCCN=Cc2ccccc2OCc2cccc(n2)COc2ccccc21`, the TGI was above 25 µM in assay [1]; above 25 µM in [2]; above 25 µM in assay [3]; above 25 µM in [20]; above 25 µM in assay [4]; 16.3 µM in [5]. The TGI in assay [6] is 6.96 µM; in [7] it was above 25 µM; in [8], above 25 µM; in assay [9], 18.2 µM; in assay [10], above 25 µM; in assay [12], above 25 µM. For the same compound, the TGI in [13] is above 25 µM; in assay [14], above 25 µM; in assay [15], above 25 µM; in [16], above 25 µM; in assay [17] it was above 25 µM; in assay [18], 19.1 µM. Besides, the TGI in assay [19] was 12 µM.

In the case of `CN(C)c1ccc(/C=C/c2cc[n+](C)c3ccccc23)cc1`, the TGI in [1] was 17 µM; in assay [2], above 45.1 µM; in [3], above 73.3 µM; in assay [20], 16.3 µM; in assay [4], 12.5 µM; in assay [6], 9.35 µM. The TGI in [7] is above 58.8 µM; in [8], above 100 µM; in assay [9] it was 15.9 µM; in assay [10], 36.5 µM; in assay [11], 17 µM; in assay [12], 21.9 µM. Further, the TGI in [13] is 21 µM; in assay [14], above 61.9 µM; in assay [15] it was 27 µM; in assay [16], 15.8 µM; in assay [17] it was 7.85 µM; in assay [18], 20.3 µM. This compound also had a TGI in assay [19] above 43.2 µM.

Turning to `CO[C@@H](c1ccccc1)[C@H](O)[C@](O)(c1ccccc1)P(=O)(OC)OC`, the TGI in assay [1], in assay [2], in assay [3], in assay [4], in [5] and in [6] was above 100 µM in each case. Further, the TGI in assay [7], in assay [8], in assay [9], in assay [10], in assay [11] and in assay [12] was above 100 µM in each case. Moreover, the TGI in [13], in assay [14], in assay [15], in [16], in assay [17] and in [18] was above 100 µM throughout. This compound displayed a TGI in [19] above 100 µM.

Turning to `CC(=O)Nc1ccc(N2C(=O)/C(=C\c3cccc(Oc4ccccc4)c3)SC2c2ccccc2)cc1` (stereo not given), the TGI in assay [1] is above 100 µM; in assay [2], above 100 µM; in assay [3], above 100 µM; in assay [20], 56.6 µM; in assay [4], above 100 µM; in assay [5] it was above 100 µM. For the same compound, the TGI is 42.3 µM in [6]; above 100 µM in [7]; above 100 µM in assay [8]; 30.4 µM in assay [9]; above 100 µM in assay [10]; above 100 µM in [11]. Besides, the TGI in assay [12] is 76.1 µM; in assay [14] it was 41.1 µM; in assay [15] it was above 100 µM; in assay [16], above 100 µM; in assay [17] it was 40.2 µM; in [18], above 100 µM. The TGI in assay [19] is above 100 µM.

Consider `Cc1ccc(-c2n[nH]c(=O)[nH]2)cc1`, for which the TGI in assay [1], in assay [2], in assay [3], in [20], in [4] and in [5] was above 100 µM in each case. The TGI in assay [6], in assay [7], in [8], in [9], in assay [10] and in [11] was above 100 µM in each case. Moreover, the TGI was above 100 µM in assay [12]; above 100 µM in assay [13]; above 100 µM in assay [14]; above 100 µM in [16]; above 46.4 µM in assay [17]; above 100 µM in assay [18]. Besides, in [19], the TGI is above 100 µM.
